{"source": "paper PMC3724985", "about": "“Isolation, biochemical characterization, and cloning of a bacteriocin from the poultry-associated Staphylococcus aureus strain CH-91” (Applied Microbiology and Biotechnology, 2012)", "tested_on": "StpC", "assay": "Residual proteolytic activity of culture media with E-64 (Hide Powder Azure)", "assay_type": "biochemical", "settings": "E-64 at 0.01, 0.1 and 1.0 mM in S. aureus CH-91 culture (TSB, 37 °C), 0.1 M Tris–HCl pH 7.5, 5 mM cysteine, 5 mM EDTA", "experimental": "S. aureus CH-91 was cultured at 37 °C in TSB supplemented with the cysteine peptidase inhibitor E-64 (1-[N-[(L-3-trans-carboxyoxirane-2-carbonyl)-L-leucyl] amino]-4-guanidinobutane; Sigma) at final concentrations of 1.0, 0.1, and 0.01 mM. Aliquots were removed at 5, 10, and 24 h, and the bacteria-free supernatants were obtained by centrifugation.\nThe residual proteolytic activity of collected culture media was determined at 37 °C using Hide Powder Azure (Calbiochem) in 0.1 M Tris–HCl (pH 7.5) supplemented with 5 mM cysteine and 5 mM EDTA."}
{"smiles": "CC(C)C[C@H](NC(=O)[C@H]1O[C@@H]1C(=O)O)C(=O)NCCCCNC(=N)N", "note": "(relative stereo) [E-64, 1-[N-[(L-3-trans-carboxyoxirane-2-carbonyl)-L-leucyl]amino]-4-guanidinobutane]", "values": [{"measurement": "residual proteolytic activity in culture media containing the inhibitor", "value": "No residual proteolytic activity was detected"}]}
